In patent US7932278B2, “2-aminoethoxyacetic acid derivatives and their use” (Bayer Schering Pharma Aktiengesellschaft, priority 2005, dated 2011):
pIC50: −log10 of the molar value. Counter-ions that a name gives are not always drawn.

Target: human factor Xa (FXa) (Homo sapiens, UniProt P00742)
Assay: Determination of the factor Xa inhibition (chromogenic substrate)
Format: biochemical
Conditions: human FXa 0.5 nmol/l, 150 μmol/l Pefachrome FXa, 25° C., extinction at 405 nm
Procedure: a. 1) Determination of the Factor Xa Inhibition:
The enzymatic action of human factor Xa (FXa) is measured using the conversion of a chromogenic substrate specific for FXa. Factor Xa cleaves p-nitroaniline from the chromogenic substrate. The determinations are carried out in microtiter plates as follows:
The test substances, in various concentrations, are dissolved in DMSO and incubated for 10 minutes at 25° C. with human FXa (0.5 nmol/l dissolved in 50 mmol/l of tris buffer [C,C,C-tris(hydroxymethyl)aminomethane], 150 mmol/l of NaCl, 0.1% BSA [bovine serum albumin], pH=8.3). Pure DMSO is used as control. The chromogenic substrate (150 μmol/l Pefachrome® FXa from Pentapharm) is then added. After an incubation time of 20 minutes at 25° C., the extinction at 405 nm is determined.

Chain of human factor Xa (FXa) (P00742 235-488 limits assumed): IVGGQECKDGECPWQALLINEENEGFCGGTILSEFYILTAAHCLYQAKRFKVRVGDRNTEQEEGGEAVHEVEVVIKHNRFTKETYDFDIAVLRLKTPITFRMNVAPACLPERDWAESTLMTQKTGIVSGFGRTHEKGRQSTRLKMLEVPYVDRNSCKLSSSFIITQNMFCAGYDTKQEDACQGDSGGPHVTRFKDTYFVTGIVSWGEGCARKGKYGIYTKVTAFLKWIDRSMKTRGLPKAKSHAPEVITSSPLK
Chain of human factor Xa (FXa) (P00742 41-179 partner limits assumed): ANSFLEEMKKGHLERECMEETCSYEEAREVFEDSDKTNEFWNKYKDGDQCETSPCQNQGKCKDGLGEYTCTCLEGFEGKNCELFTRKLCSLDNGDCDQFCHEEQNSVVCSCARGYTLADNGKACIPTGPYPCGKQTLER

Row | SMILES | pIC50
1 | O=C(O)COCCNc1ccc(N2C[C@H](CNC(=O)c3ccc(Cl)s3)OC2=O)cc1 [Example 1, 2-({4-[(5S)-5-({[(5-Chloro-2-thienyl)carbonyl]amino}methyl)-2-oxo-1,3-oxazolidin-3-yl]phenyl}-amino)ethoxy]acetic acid hydrochloride] | 7.49
2 | O=C(O)COCCN(C(=O)c1ccc(Cl)s1)c1ccc(N2C[C@H](CNC(=O)c3ccc(Cl)s3)OC2=O)cc1 [Example 3, [2-([(5-Chloro-2-thienyl)carbonyl]{4-[(5S)-5-({[(5-chloro-2-thienyl)carbonyl]amino}methyl)-2-oxo-1,3-oxazolidin-3-yl]phenyl}amino)ethoxy]acetic acid] | 7.18
3 | CC(C)CNC(=O)N(CCOCC(=O)O)c1ccc(N2C[C@H](CNC(=O)c3ccc(Cl)s3)OC2=O)cc1 [Example 4, {2-[{4-[(5S)-5-({[(5-Chloro-2-thienyl)carbonyl]amino}methyl)-2-oxo-1,3-oxazolidin-3-yl]phenyl}-(isobutylcarbamoyl)amino]ethoxy}acetic acid] | 7.23
